Active and inactive are the calls of the source. No cut-off for these calls is given here.
How the values were obtained:
[1] = target: T1, Protein cereblon/Bromodomain-containing protein 4 (Homo sapiens) (UniProt O60885+Q96SW2); assay: PROTAC activity at CRBN/BRD4 in human MCF7 cells assessed as induction of BRD4 degradation at 1 uM measured after 6 to 24 hrs by Western blot analysis relative to control; format: cell-based; conditions: time 6-24 hrs
[2] = target: T1, Protein cereblon/Bromodomain-containing protein 4 (Homo sapiens); assay: PROTAC activity at CRBN/BRD4 in human MCF7 cells assessed as induction of BRD4 degradation at 1 uM measured after 18 hrs in presence of MLN4924 by Western blot analysis; format: cell-based
[3] = target: T1, Protein cereblon/Bromodomain-containing protein 4 (Homo sapiens); assay: PROTAC activity at CRBN/BRD4 in human MCF7 cells assessed as induction of BRD4 degradation at 1 uM measured after 24 hrs by Western blot analysis; format: cell-based
[4] = target: T1, Protein cereblon/Bromodomain-containing protein 4 (Homo sapiens); assay: PROTAC activity at CRBN/BRD4 in human MCF7 cells assessed as induction of BRD4 degradation at 1 uM measured after 24 hrs by Western blot analysis relative to control; format: cell-based
[5] = target: T1, Protein cereblon/Bromodomain-containing protein 4 (Homo sapiens); assay: PROTAC activity at CRBN/BRD4 in human MCF7 cells assessed as induction of BRD4 degradation at 1 uM measured after 18 hrs in presence of MG132 by Western blot analysis; format: cell-based
[6] = Stability of the compound assessed as UV-light induced degradation measured after 30 mins by HPLC analysis; format: physicochemical; conditions: 0.5 h
[7] = target: T1, Protein cereblon/Bromodomain-containing protein 4 (Homo sapiens); assay: PROTAC activity at CRBN/BRD4 in human MCF7 cells assessed as induction of BRD4 degradation measured after 6 to 24 hrs by Western blot analysis; format: cell-based; conditions: dose <= 1.0 µM, time 6-24 hrs
[8] = target: T1, Protein cereblon/Bromodomain-containing protein 4 (Homo sapiens); assay: PROTAC activity at CRBN/BRD4 in human MCF7 cells assessed as induction of BRD4 degradation at 1 uM measured after 18 hrs in presence of […] by Western blot analysis; format: cell-based

T1 sequence (Q96SW2 whole entry, looked up, other chains not shown): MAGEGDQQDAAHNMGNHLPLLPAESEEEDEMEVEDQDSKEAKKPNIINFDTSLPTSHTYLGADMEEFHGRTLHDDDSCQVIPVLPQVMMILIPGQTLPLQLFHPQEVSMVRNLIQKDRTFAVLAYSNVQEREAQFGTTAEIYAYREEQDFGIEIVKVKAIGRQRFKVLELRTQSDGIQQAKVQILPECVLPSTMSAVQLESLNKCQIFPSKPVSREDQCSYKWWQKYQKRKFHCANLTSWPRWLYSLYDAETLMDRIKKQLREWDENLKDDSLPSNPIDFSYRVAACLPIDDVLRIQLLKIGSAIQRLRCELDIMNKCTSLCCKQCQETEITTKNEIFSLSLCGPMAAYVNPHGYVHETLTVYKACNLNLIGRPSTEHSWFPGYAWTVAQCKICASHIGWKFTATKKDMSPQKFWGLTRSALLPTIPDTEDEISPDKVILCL

SMILES	Activity [1]	Activity [2]	Activity [3]	Activity [4]	Activity [5]	Stability [6]	Activity [7]	Activity [8]
Cc1sc2c(c1C)C(c1ccc(Cl)cc1)=N[C@@H](CC(=O)NCCCNC(=O)OCc1cc(OCCCNc3cccc4c3C(=O)N(C3CCC(=O)NC3=O)C4=O)ccc1[N+](=O)[O-])c1nnc(C)n1-2 (some centres undefined)	> 80%	inactive	Active	> 80%	inactive	Unstable	Dose-Dependent Effect	inactive
Cc1sc2c(c1C)C(c1ccc(Cl)cc1)=N[C@@H](CC(=O)NCCNC(=O)OCc1cc(OCCCNc3cccc4c3C(=O)N(C3CCC(=O)NC3=O)C4=O)ccc1[N+](=O)[O-])c1nnc(C)n1-2 (some centres undefined)		inactive	Active	> 80%	inactive		Dose-Dependent Effect	inactive
Cc1sc2c(c1C)C(c1ccc(Cl)cc1)=N[C@@H](CC(=O)NCCCNC(=O)OCc1cc(OCCCNC(=O)CNc3cccc4c3C(=O)N(C3CCC(=O)NC3=O)C4=O)ccc1[N+](=O)[O-])c1nnc(C)n1-2 (some centres undefined)		inactive	Active	> 80%	inactive			inactive

Source: ChEMBL document CHEMBL5550141, “Photo-regulated PROTACs: A novel tool for temporal control of targeted protein degradation” (Bioorg Med Chem Lett, 2024)
